# Key:
# [1] = system: primary NK cells; test: Primary NK cell viable cell number by trypan-blue dye exclusion; format: cell-based, human; conditions: primary NK cells #1, #2, pomalidomide 0-0.5 μM, 24 h
# Protocol: Isolated primary NK cells from two healthy volunteers were cultured for 24 h with pomalidomide (0-0.5 μM). Viable cell number was measured by trypan-blue dye exclusion.
# [2] = system: NK-92 cells; test: NK-92 cell growth by MTT assay; format: cell-based; conditions: Pom 0.03-3 μM, 72 h
# Protocol: (A) NK-92 cells were cultured with Pom (0.5 and 1 μM) for 24 h. Whole cell lysates were subjected to immunoblotting using indicated Abs. (B) NK-92 cells were cultured with Pom (0.5 and 1 μM) for 48 h. The cells were subsequently incubated with calcein-AM-stained U266 cells for 4 h at the indicated effector/target (E/T) ratios. Percent specific lysis was calculated as described previously. (C) NK-92 cells were cultured with Pom (0.03-3 μM) for 72 h. Cell growth was assessed by MTT assay. (D) NK-92 cells were transfected with scrambled (Sc) or Zap-70 siRNA (Zap70si). After 72 h incubation, cell viability was measured by trypan-blue dye exclusion. For B, C, and D, data are representative of at least two independent experiments, and values are expressed in mean±SD.
# [3] = target: T1, Zap-70 (Homo sapiens, UniProt P43403); test: Immunoblotting of p-Zap-70 in KHYG-1 NK cell line; format: cell-based; conditions: KHYG-1 cells, pomalidomide 0.25-1 μM, 24 h
# T1 sequence (P43403 1-619): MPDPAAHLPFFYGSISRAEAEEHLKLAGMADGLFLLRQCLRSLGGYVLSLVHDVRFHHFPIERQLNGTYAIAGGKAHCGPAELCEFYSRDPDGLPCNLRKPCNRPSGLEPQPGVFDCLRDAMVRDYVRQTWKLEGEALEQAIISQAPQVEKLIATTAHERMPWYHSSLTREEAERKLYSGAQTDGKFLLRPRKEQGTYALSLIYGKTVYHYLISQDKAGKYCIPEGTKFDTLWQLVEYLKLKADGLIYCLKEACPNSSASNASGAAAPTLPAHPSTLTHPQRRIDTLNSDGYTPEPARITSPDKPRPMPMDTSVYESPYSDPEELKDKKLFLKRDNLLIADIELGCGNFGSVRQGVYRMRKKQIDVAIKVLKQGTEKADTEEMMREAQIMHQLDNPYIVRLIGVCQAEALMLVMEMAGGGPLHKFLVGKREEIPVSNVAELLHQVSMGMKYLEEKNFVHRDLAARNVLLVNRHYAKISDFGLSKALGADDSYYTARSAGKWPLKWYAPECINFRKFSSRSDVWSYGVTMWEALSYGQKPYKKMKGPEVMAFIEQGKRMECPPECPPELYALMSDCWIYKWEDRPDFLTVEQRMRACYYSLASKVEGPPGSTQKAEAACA
# Protocol: (§1) KHYG-1 cells were cultured with pomalidomide (0.25-1 μM) for 24 h. (A) Whole cell lysates were subjected to immunoblotting using indicated Abs. (B) KHYG-1 cells were incubated with calcein-AM-stained U266 cells for 4 h at the indicated effector/target (E/T) ratios. Percent specific lysis was calculated as described previously. (C) KHYG-1 cells were transfected with Scsi or Zap-70si, and then cultured with pomalidomide (0.25 μM) for 72 h in the absence of IL-2. Viable cell number was determined, and cells were then incubated with calcein AM-labeled U266 target cells for 4 h at indicated effector/target (E/T) ratios. Percent specific lysis was calculated as described previously. (D) After transfection with Scsi or Zap-70si, cells were cultured with lenalidomide or pomalidomide for 72 h. Cell growth was assessed by MTT assay. (E) KHYG-1 cells were transfected with scrambled (Scsi) or CRBNsi. The transfectants were then cultured with pomalidomide (0.5 μM) for 24 h, and whole cell lysates were subjected to immunoblotting using indicated Abs. The arrow indicates CRBN expression. (F) Primary NK cells (#1, #2, #3, #4) were isolated from healthy volunteer's PBMCs, as described in Materials and Methods. NK cells were cultured with pomalidomide (0.5 μM) for 24 h, and whole cell lysates were subjected to immunoblotting using indicated Abs. […] Percent specific lysis was calculated as previously described.
# [4] = target: T1, Zap-70; test: PathScan Phospho-Zap-70 (Tyr319) Sandwich ELISA in Jurkat cells; format: cell-based; conditions: lenalidomide (1 and 3 μM) or pomalidomide (1 and 3 μM), 4 h and 8 h, Len<Pom
# Protocol: (A) Jurkat cells were transfected with scrambled (Sc) siRNA or Zap-70 siRNA. Whole cell lysates were subjected to immunoblotting using indicated Abs. (B) Jurkat cells were treated with lenalidomide ([…]) or pomalidomide (1 and 3 μM) for 4 h and 8 h. Whole cell lysates were subjected to p-Zap ELISA assay. (C) Jurkat whole cell lysates were incubated with pomalidomide-beads in the presence or absence of competitor (1 mM free pomalidomide) for 1 h. After elution, samples were subjected to immunoblotting using anti-Zap-70 Ab. (D) Saturation-transfer difference resulting from the binding of pomalidomide to Zap-70. Pomalidomide is at 320 μM and Zap-70 is approximately 2 μM in deuterated PBS solution. […] (E) Saturation-transfer difference resulting from the binding of pomalidomide to Zap-70 in the presence of 2.56 mMATP. Pomalidomide is at 320 μM and Zap-70 is approximately 2 μM in deuterated PBS solution. […] Note that both ATP and pomalidomide show binding the Zap-70. (F) Non-cell based Zap-70 kinase assay was carried out, according to manufacturer's protocol.
# Phosphorylation of Zap-70 was evaluated using PathScan Phospho-Zap-70 (Tyr319) Sandwich ELISA Kit (Cell Signaling Technology), according to manufacturer's protocol.
# [5] = target: T1, Zap-70; test: Immunoblotting of p-Zap-70 in primary NK cells from healthy volunteers; format: cell-based; parameters: endogenous in cells; host or cells: primary PBMCs, primary T cells and primary NK cells from healthy volunteers; conditions: primary NK cells #1-#4, pomalidomide 0.5 μM, 24 h
# Protocol: as §1
smiles,measurement,setting,value
Nc1cccc2c1C(=O)N(C1CCC(=O)NC1=O)C2=O (centres unmarked) [pomalidomide],NK cell growth (viable cell number),[1],without significantly effecting NK cell growth
same,cell growth (MTT),[2],neither Pom nor Zap-70 KD altered growth in NK-92 cells
same,p-Zap-70 (immunoblotting),[3],similarly enhanced p-Zap-70 in KHYG-1 cells
same,p-Zap-70 (Tyr319) by ELISA,[4],increased p-Zap-70 (Tyr319) in a dose-dependent fashion
same,p-Zap-70 (immunoblotting),[5],upregulated p-Zap-70 in primary NK cells

# Source: US20240216354A1, “IMMUNOMODULATORY IMIDE DRUGS AS ZETA-CHAIN-ASSOCIATED PROTEIN KINASE 70 (ZAP70) AGONISTS AND USES THEREOF” (Dana-Farber Cancer Institute, Inc., priority 2019, published 2024)
